How the values were obtained:
[1] = system: mdx mice; details: previous studies (Ref. 36-37); cited from earlier work
[2] = system: muscle regeneration after traumatic injury; details: systemic administration (Ref. 21); cited from earlier work
[3] = system: mdx mice; details: previous studies (Ref. 38 and 39); cited from earlier work
[4] = Body weight, Example 2; assay type: in vivo; details: mdx mice, genistein 2 mg/kg/ip daily for 5 weeks vs vehicle
Procedure: (§1) Mdx animals were purchased from Charles River Italy (Calco, Milan, Italy). Animals were 4 weeks old on arrival and were acclimatized for 5 days before the study. At the beginning of the experiment the mice, which were at that point 5 weeks old, weighted about 20-22 grams. The mice were treated daily for 5 weeks with either the phytoestrogen genistein (Sigma, Mo., USA) at a dose of 2 mg/kg/ip or its vehicle (1:3 DMSO: 0.9% NaCl solution).
(§2) Mice were weighed and examined for forelimb strength at baseline and at the end of the experiment. Strength testing consisted of five separate measurements using a grip meter attached to a force transducer that measures the peak force generated (Stoelting Co., Wooddale Ill., USA). Specifically, the mouse grabbed the trapeze bar as it is pulled backward and the peak pull force in grams is recorded on a display. The three highest measurements for each animal were averaged to give the strength score.

[5] = system: mdx mice; assay: Forelimb strength and fatigue by grip meter, Example 2; assay type: in vivo; details: genistein 2 mg/kg/ip daily for 5 weeks vs vehicle
Procedure: as §1, §2
The degree of fatigue was calculated by comparing the first two pulls to the last two pulls. The decrease between pulls 1+2 and pulls 4+5 provided the measure of fatigue.

[6] = system: mdx mice; assay: Serum creatine kinase (CK) evaluation, Example 2; assay type: in vivo; details: genistein 2 mg/kg/ip daily for 5 weeks vs vehicle
Procedure: as §1
Blood samples were centrifuged at 6000 g and the serum was stored at −80° C. until the day of analysis. Serum CK was evaluated at 37° C. using a commercially available kit (Randox Laboratories LTD, Antrim, UK). The results are expressed as U/L.

[7] = system: mdx mice; assay: Histological studies of biceps muscle, Example 2; assay type: in vivo; details: genistein 2 mg/kg/ip daily for 5 weeks vs vehicle
Procedure: as §1
Transverse cryostat sections 10 μm thick were obtained from the midpoint of the biceps and TA muscle body. The whole muscle cross sections (corresponding to a mean area of 2.10 mm^2 in biceps and 2.25 mm^2 in TA) were stained with hematoxylin-eosin and were examined by a blinded observer using the AxioVision 2.05 image analysis system equipped with an Axiocam camera scanner (Zeiss, Munchen, Germany). The following four areas with patchy distribution were recognized: 1) normal fibers identified by the presence of peripheral nuclei; 2) necrotic fibers identified by pale cytoplasm and phagocytosis; 3) regenerating fibers identified by small size, central nuclei with/without basophilic cytoplasm; 4) centrally nucleated fibers identified by normal size but with central nuclei. The area occupied by normal fibers, necrotic fibers, regenerating fibers, or centrally nucleated fibers was expressed as a percentage of the area of the whole muscle cross section.

[8] = system: mdx mice; assay: Immunohistochemistry of biceps (myogenin, dMHC), Example 2; assay type: in vivo; details: genistein 2 mg/kg/ip daily for 5 weeks vs vehicle
[9] = system: NF-κB; assay: NF-κB activation (EMSA) in skeletal muscle, Example 2; assay type: in vivo; details: mdx mice skeletal muscle, genistein 2 mg/kg/ip daily for 5 weeks vs vehicle
Procedure: as §1
Isolation of nuclear proteins in approximately 50 mg of frozen skeletal muscle tissue was performed according to recently detailed method (See ref 15 below). Twenty micrograms of nuclear extract were incubated for 30 min at room temperature with 50 fmol of biotin-end-labeled 45-mer double-strand NF-κB oligonucleotide from the HIV long terminal repeat, 5-[…] GGCGTGGG-3 containing 2(underlined) NF-κB binding sites. Both complimentary oligos were end-labeled separately and then annealed prior to use. […] The results were expressed as relative integrated intensity compared with normal controls, considering exposure time, background levels and known protein concentration of an Epstein Barr virus nuclear antigen-1 extract, which was used as EMSA control.

[10] = system: Extensor digitorum longus muscles (EDL) of mdx mice; assay: Electrophysiological studies of isolated EDL muscle, Example 2; assay type: in vivo; details: genistein 2 mg/kg/ip daily for 5 weeks vs vehicle
Procedure: as §1
Extensor digitorum longus muscles (EDL) were vertically mounted in a temperature controlled (30°) chamber containing Krebs Ringer bicarbonate buffer (Sigma k4002) and continuously gassed with a mixture of 95% O2 and 5% CO2. One end of the muscle was linked to a fixed clamp while the other end was connected to the lever-arm of an Aurora Scientific Instruments 300B actuator/transducer system using a nylon wire. […] For each experiment, the initial muscle length was adjusted to the length (L0) which produced the highest twitch force. The optimal fiber length (Lf) was determined by multiplying the value of L0 for the fiber length by the muscle length ratio (0.44 for the EDL and 0.71 for soleus). The muscle cross-sectional area (CSA) was determined for the EDL and soleus by dividing the muscle mass (m) by the product of the Lf and the density of mammalian skeletal muscle (1.06 mg/mm^3).
In order to measure force generation, the muscle was initially stimulated with two 0.5 ms single pulses (with a rest time of 150 s) to measure twitch force, twitch force/cross sectional area (CSA), and contraction time (the time that the isolated muscle needs to reach the peak force after delivery of a single electrical pulse).
In order to measure high-stress eccentric contractions, the muscle was stimulated with five tetanic stimulations (train of 0.1 ms pulses delivered at 180 Hz, for 0.6 s) to evaluate the maximum isometric force (and maximum force/cross sectional area (CSA)) and the decline in maximal isometric force. The latter was measured by dividing the force value at the last stimulation (F5) by the force value at the first stimulation (F1), and used as a index of myofiber injury caused by high-stress contractions.

[11] = Body weight, Example 1; assay type: in vivo; details: WT mice, after 5 weeks daily i.p. treatment, compared to WT mice treated with vehicle
Procedure: (§3) Five-week old mdx and WT mice were treated for 5 weeks with daily 100 μl intraperitoneal injections with either flavocoxid (a mixture of catechin and baicalin) (n=8, 5 mg/kg), methylprednisolone (n=8, 0.75 mg/Kg) or vehicle (n=8, 33% (v/v) dimethylsulphoxide (DMSO) in 0.9% NaCl). At the end of the experiments, animals were anaesthetized with intraperitoneal administration of sodium penthobarbital (80 mg/kg). Blood was then collected by intracardiac puncture and used to analyze creatine kinase (CK) levels. The biceps, quadriceps and extensor digitorum longus (EDL) muscles were removed bilaterally and immediately frozen in liquid nitrogen-cooled isopentane and stored at −80° C. for histological and biochemical evaluations.
Mice were weighed and examined for forelimb strength at baseline and after 5 weeks of treatment. Strength testing consisted of five separate measurements using a grip meter attached to a force transducer that measures peak force generated (Stoelting Co, Wooddale Ill., USA). Briefly, the mouse grabed the trapeze bar as it was pulled backward and the peak pull force in grams was recorded on a display upon release by the animal. The three highest measurements for each animal were averaged to give the strength score. The degree of fatigue was calculated by comparing the first two pulls to the last two pulls. […]

[12] = system: WT and mdx mice; assay: Forelimb strength and fatigue by grip meter, Example 1; assay type: in vivo; details: flavocoxid 5 mg/kg, methylprednisolone 0.75 mg/Kg
Procedure: as §3
Mice were weighed and examined for forelimb strength at baseline and after 5 weeks of treatment. Strength testing consisted of five separate measurements using a grip meter attached to a force transducer that measures peak force generated (Stoelting Co, Wooddale Ill., USA). Briefly, the mouse grabed the trapeze bar as it was pulled backward and the peak pull force in grams was recorded on a display upon release by the animal. The three highest measurements for each animal were averaged to give the strength score. The degree of fatigue was calculated by comparing the first two pulls to the last two pulls. The decrement between pulls 1+2 and pulls 4+5 gave the measure of fatigue.

[13] = system: WT and mdx mice; assay: Serum creatine kinase (CK) evaluation, Example 1; assay type: in vivo; details: after 5 weeks daily i.p. treatment, mean±SD
Procedure: as §3
Blood samples were centrifuged at 6,000 RPM and the serum stored at −80° C. until the day of analysis. Serum CK was evaluated at 37° C. using a commercially available kit (Randox Laboratories LTD, Crumlin, Co. Antrim U.K). The results were expressed as U/L.

[14] = end of 5 weeks daily i.p. treatment

CC(=O)SCCC1Cc2c(C)c(OC(=O)CCC(=O)O)c(C)c(C)c2O1 (racemic) [IRFI-042, (±)-5-emisuccinoyl-2-[2-(acetylthio)ethyl]-2,3-dihydro-4,6,7-trimethylbenzofuran]
effects on functional, biochemical and morphological parameters of mdx mice muscle fibers [1]: beneficial effects

COc1cc(/C=C/C(=O)CC(=O)/C=C/c2ccc(O)c(OC)c2)ccc1O [curcumin]
muscle regeneration after traumatic injury [2]: stimulates muscle regeneration

O=C(O[C@@H]1Cc2c(O)cc(O)cc2O[C@@H]1c1cc(O)c(O)c(O)c1)c1cc(O)c(O)c(O)c1 [epigallocatechin gallate]
effect on mdx mice [3]: beneficial effect

O=c1c(-c2ccc(O)cc2)coc2cc(O)cc(O)c12 [genistein, 5,7-Dihydroxy-3-(4-hydroxyphenyl)chromen-4-one]
body weight [4]: not significantly different | forelimb strength [5]: significantly augmented | level of fatigue [5]: slightly lower | strength normalized to weight [5]: higher | CK levels [6]: statistically significant reduction | necrosis in the biceps [7]: decreased | percentage of centrally nucleated fibers in the biceps [7]: not found to modify | percentage of normal muscular area in the biceps [7]: not found to modify | percentage of regenerating fibers in the biceps [7]: increased | myogenin expression in the nuclei of muscles [8]: significantly increased | number of dMHC positive fibers [8]: not found to modify | number of myogenin positive satellite cells (SC) [8]: not found to modify | NF-κB activation [9]: significantly decreased | contraction time [10]: not found to modify | decline of maximal isometric force (F5/F1 after five tetanic stimulations) [10]: reduced | maximum force/CSA [10]: not found to modify | twice force/CSA [10]: not found to modify | twitch force [10]: not found to modify

C[C@H]1C[C@@H]2[C@H]([C@@H](O)C[C@@]3(C)[C@H]2CC[C@]3(O)C(=O)CO)[C@@]2(C)C=CC(=O)C=C12 [methylprednisolone]
body weight [11]: increase in body weight | fatigue levels compared to vehicle-treated mdx ([12]; after 5 weeks daily i.p. treatment): −13% | forelimb strength compared to vehicle-treated mdx mice [12, 14]: +30% | strength normalized to weight compared to vehicle-treated mdx mice [12, 14]: +27% | serum CK levels ([13]; WT mice): 365±28 U/L | serum CK levels ([13]; mdx mice): 1737±103 U/L

S=C(S)N1CCCC1 [pyrrolidine dithiocarbamate]
effects on functional, biochemical and morphological parameters of mdx mice muscle fibers [1]: beneficial effects

Source: patent publication US20100190733A1, “Methods of Treating Muscular Dystrophies” (Primus Pharmaceuticals, Inc., priority 2009, published 2010)
